The text below walks through data of patent US8586603B2, “Aminotetraline derivatives” (priority 2009, dated 2013).

Data set [1] in a line: Pig skin permeation from saturated solution. Type of data set: in vitro ADME. The note with it: pig leg skin 300-500 μm, phosphate buffer pH 6.2, 32° C., 48 hours, mean of cells 1-3. As for the experimental part:
(§1) The in vitro permeation of compound 1 through pig skin from saturated solution (f1) and from a patch (f2) was investigated.
For the permeation experiments horizontal cells with an acceptor and donor volume of approx. 23 mL of phosphate buffer pH 6.2 were used. The donor cells contained saturated solutions of compound 1 (2 mg/mL) in phosphate buffer pH 6.2. The experiments were performed at a temperature of 32° C. and the acceptor and donor media were slowly stirred. For the study pig leg skin with thickness of 300-500 μm were used. The experiments were performed in triplicate (n=3) over a period of 48 hours. During this time period six samples at different time points (after 2, 4, 6, 8, 24 and 48 hours) were taken. After each individual incubation period the concentration of the test compound in the acceptor medium was analysed by HPLC at 275 nm, 20° C., flow rate 2.0 mL/min in acetonitrile/water/TFA.
Evaluation: The concentration of the test compound in the acceptor medium was calculated by using an external standard solution with known concentration. Then the concentration of test compound was correlated with the incubation time by linear regression. The flux rate [μg/cm^2/h] is equivalent to the slope of the linear equation.

The target in data set [2] is T1, human dopamine receptor subtype hD3 (Homo sapiens, UniProt P35462).
T1 construct: expressed in transfected cells; host or cells: CHO
T1 sequence (P35462 whole entry): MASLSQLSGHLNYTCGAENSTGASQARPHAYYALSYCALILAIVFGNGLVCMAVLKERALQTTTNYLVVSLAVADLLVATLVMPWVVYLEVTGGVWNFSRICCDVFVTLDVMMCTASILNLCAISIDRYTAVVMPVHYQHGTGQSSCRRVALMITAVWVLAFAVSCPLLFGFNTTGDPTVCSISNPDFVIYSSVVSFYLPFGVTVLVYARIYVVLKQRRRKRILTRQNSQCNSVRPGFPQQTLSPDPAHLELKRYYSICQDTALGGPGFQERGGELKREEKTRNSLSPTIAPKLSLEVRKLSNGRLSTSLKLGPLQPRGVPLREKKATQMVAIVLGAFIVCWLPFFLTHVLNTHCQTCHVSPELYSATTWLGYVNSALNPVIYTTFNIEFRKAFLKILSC
Description: Receptor binding assay, [3H]spiperone competition, CHO cell membranes. As for the experimental part:
(§2) Receptor binding data were determined when performing competition binding assays with membrane preparations of cloned cells (stably transfected Chinese Hamster Ovary cells (CHO)) expressing the human receptors and the following radioligands: [^3H]spiperone at the human dopamine receptor subtypes hD2long, hD2short, D3, and hD4.4.
(§3) Selectivity ratios were calculated by division of the Ki values of the various compounds at the respective receptors through the Ki values at the 5HT1a receptor.

The target of data set [3] is T2, human dopamine receptor subtype hD2short (Homo sapiens, UniProt P14416).
T2 construct: expressed in transfected cells; host or cells: CHO
T2 sequence (P14416 1-414 isoform P14416-2): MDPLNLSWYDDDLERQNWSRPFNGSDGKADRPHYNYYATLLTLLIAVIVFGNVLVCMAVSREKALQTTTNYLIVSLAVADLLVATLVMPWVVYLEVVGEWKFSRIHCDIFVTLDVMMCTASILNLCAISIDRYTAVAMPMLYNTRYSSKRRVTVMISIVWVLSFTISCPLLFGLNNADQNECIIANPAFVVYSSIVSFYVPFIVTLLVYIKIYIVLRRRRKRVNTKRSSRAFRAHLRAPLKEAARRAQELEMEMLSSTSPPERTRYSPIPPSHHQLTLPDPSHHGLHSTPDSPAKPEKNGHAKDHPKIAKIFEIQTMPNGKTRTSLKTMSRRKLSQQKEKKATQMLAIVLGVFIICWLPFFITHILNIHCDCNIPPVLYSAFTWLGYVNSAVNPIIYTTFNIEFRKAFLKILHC
The data set is described as above. As for the experimental part:
as §2, §3

Data set [4] deals with T3, human dopamine receptor subtype hD2long (Homo sapiens, UniProt P14416).
T3 construct: expressed in transfected cells; host or cells: CHO
T3 sequence (P14416 whole entry): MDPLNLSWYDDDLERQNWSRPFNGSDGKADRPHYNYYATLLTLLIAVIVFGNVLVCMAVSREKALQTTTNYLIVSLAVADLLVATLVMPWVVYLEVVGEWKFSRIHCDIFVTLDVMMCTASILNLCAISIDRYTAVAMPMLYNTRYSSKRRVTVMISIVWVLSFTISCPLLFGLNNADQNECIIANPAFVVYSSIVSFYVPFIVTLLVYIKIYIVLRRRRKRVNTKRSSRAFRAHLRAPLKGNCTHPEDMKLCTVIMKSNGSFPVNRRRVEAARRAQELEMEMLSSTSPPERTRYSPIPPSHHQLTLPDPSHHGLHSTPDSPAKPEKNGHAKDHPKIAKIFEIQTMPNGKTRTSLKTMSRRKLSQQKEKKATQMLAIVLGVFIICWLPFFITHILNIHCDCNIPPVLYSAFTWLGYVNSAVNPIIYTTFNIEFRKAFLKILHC
The data set is described as above. As for the experimental part: as §2, §3

Data set [5] deals with T4, porcine striatal pD1 dopamine receptor (Sus scrofa, UniProt P50130).
T4 construct: membrane homogenates prepared from porcine striatal or cortical tissue; from tissue; host or cells: porcine striatum
T4 sequence (P50130 whole entry): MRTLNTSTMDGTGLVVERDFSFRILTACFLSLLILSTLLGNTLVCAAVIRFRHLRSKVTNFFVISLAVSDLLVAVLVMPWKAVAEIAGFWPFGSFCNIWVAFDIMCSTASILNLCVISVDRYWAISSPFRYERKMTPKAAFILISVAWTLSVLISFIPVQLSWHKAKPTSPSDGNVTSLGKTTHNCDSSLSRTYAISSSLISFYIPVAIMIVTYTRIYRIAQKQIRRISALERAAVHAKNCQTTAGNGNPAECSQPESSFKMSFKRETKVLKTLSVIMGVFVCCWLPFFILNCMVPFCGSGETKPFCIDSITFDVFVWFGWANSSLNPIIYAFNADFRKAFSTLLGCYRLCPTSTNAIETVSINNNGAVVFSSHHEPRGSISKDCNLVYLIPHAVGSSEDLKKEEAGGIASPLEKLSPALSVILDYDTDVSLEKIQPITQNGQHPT
Description: Receptor binding assay, [3H]SCH 23390 competition, porcine striatal membranes.

Data set [6] concerns the target T5, porcine cortical p5-HT1a serotonin receptor (Sus scrofa, UniProt A0A4X1UTF5).
T5 construct: membrane homogenates prepared from porcine striatal or cortical tissue; from tissue; host or cells: porcine cortex
T5 sequence (A0A4X1UTF5 1-422): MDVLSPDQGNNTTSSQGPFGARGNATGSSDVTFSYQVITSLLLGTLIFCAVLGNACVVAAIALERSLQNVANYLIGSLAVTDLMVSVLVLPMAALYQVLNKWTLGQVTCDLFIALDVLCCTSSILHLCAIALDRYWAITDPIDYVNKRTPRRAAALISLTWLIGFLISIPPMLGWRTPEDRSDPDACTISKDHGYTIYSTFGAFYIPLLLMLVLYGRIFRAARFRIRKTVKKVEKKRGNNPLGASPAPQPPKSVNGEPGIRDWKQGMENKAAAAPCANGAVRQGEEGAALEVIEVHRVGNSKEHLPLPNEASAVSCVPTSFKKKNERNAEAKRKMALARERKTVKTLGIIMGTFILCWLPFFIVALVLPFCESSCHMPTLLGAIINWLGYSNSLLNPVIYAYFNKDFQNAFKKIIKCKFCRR
Put plainly: Receptor binding assay, [3H]WAY100635 competition, porcine cortical membranes.

For data set [7], the target named is T6, human dopamine receptor subtype hD4.4 (Homo sapiens, UniProt P21917).
T6 construct: expressed in transfected cells; host or cells: CHO
T6 sequence (P21917 1-419): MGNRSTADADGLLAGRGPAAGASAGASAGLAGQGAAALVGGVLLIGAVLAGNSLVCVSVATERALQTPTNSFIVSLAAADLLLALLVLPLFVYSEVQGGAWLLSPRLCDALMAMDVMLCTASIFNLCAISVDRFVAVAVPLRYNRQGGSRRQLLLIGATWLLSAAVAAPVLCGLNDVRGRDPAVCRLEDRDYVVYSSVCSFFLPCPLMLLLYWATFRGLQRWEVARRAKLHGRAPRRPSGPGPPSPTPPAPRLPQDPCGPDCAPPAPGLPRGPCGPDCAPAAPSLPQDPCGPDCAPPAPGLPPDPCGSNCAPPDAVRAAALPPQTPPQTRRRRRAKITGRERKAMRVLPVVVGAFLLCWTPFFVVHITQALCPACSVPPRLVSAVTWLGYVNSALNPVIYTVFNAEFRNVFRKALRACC
Description: Receptor binding assay, [3H]spiperone competition, CHO cell membranes. How it is done: Receptor binding data were determined when performing competition binding assays with membrane preparations of cloned cells (stably transfected Chinese Hamster Ovary cells (CHO)) expressing the human receptors and the following radioligands: [^3H]spiperone at the human dopamine receptor subtypes hD2long, hD2short, D3, and hD4.4. […].
as §3

Data set [8] is described as follows: Stability in PBS buffer pH 7.4 and SGF with 0.5% DMSO. The class given is physicochemical. As to conditions: 37° C. How it is done:
5 μL DMSO stock solution of compound 1 (2 mg/mL) were diluted with […] PBS buffer pH 7.4 and 995 μL Simulated Gastric Fluid (SGF). After dilution the samples were immediately analysed by HPLC. After the initial injection, each sample solution was repeatedly injected over a period of approximately 12 hours.

A short description of data set [9]: Pig skin permeation from patch. Type of data set: in vitro ADME. How it is done: as §1
For this permeation experiments Franz diffusion cells with a diffusion area of 2.54 cm^2 and an acceptor volume of approx. 100 mL were used. For the study pig leg skin with a thickness of 300-500 μm was used. The permeation experiments were performed at a temperature of 32° C. and the acceptor medium (phosphate buffer pH 6.2) was slowly stirred. A patch of 2.54 cm^2 area comprising about 5 wt % of compound 1 in a hydrophobic adhesive layer was fixed on the skin surface. The experiments were performed in triplicate (n=3) over a period of 48 hours. During this time period six samples at different time points (after 2, 4, 6, 8, 24 and 48 hours) were taken. After each individual incubation period the concentration of the test compound in the acceptor medium was analysed by HPLC at 275 nm, 20° C., 2.0 mL/min in acetonitrile/water/TFA.

The mark [10] stands for this setting: means of 2-8 individual experiments each done as triplicate.

SMILES strings stand for the structures.

Broadly, the Ki is a measure of affinity in units of concentration, obtained from inhibition or displacement. As for `CCCN(CCc1cccs1)C1CCc2cccc(O)c2C1` (stereo not shown) [Compound 1, N-(8-Hydroxytetralin-2-yl)-N-propyl-N-[2-(2-thienyl)ethyl]amine], in [1], the “average flux rate from saturated solution” value came to 4.0 μg/cm^2/h. The Ki in data set [2] (setting [10]) is 190 nM; in data set [3] (setting [10]), 260 nM; in data set [4] (setting [10]), 260 nM; in [5] (setting [10]), 9400 nM; in data set [6] (setting [10]), 0.73 nM; in data set [7] (setting [10]) it was 190 nM. For the same compound, the “selectivity ratio hD3” value in data set [2] (vs p5-HT1a) was determined as 260. The “selectivity ratio hD2short” value in data set [3] (vs p5-HT1a) was found to be 360. Moreover, in [4] (vs p5-HT1a), the “selectivity ratio hD2long” value stood at 360. In addition, the “selectivity ratio pD1” value in [5] (vs p5-HT1a) is recorded as 13 000. In addition, the “selectivity ratio p5-HT1a” value in [6] (reference receptor of the ratio (=1)) came to 1. In addition, the “selectivity ratio hD4.4” value in data set [7] (vs p5-HT1a) turned out to be 260. Moreover, the “degradation (stability)” value is “No degradation” in [8] (PBS buffer pH 7.4, 12 hours) and “No degradation” in data set [8] (simulated gastric fluid (pH 1-2), 12 hours). Also, the “penetration of skin in an in vitro skin model of transdermal penetration” value in [9] (in words) was “able to penetrate skin”. For the same compound, the “average flux rate from patch” value in data set [9] (patch 2.54 cm^2, about 5 wt % compound 1 in hydrophobic adhesive layer, pig leg skin, 32° C., 48 hours) is 4.0 μg/cm^2/h. Further, the “Measured Flux Rate (patch)” value in [9] (patch, pig skin) was 4.01 μg μg per cm^2/h. Besides, in data set [9] (per 30 cm^2 patch/24 hrs), the “Extrapolated daily flux rate” value is 2.88 mg.
